Source: patent US8008354B2, “Death receptor sensitizing compounds and methods of use therefor” (Burnham Institute for Medical Research, priority 2006, dated 2011)
Where a name gives a salt, the structure may show the parent alone.

Columns and labels:
[1] = test system: PPC-1 cells; test: Annexin V apoptosis of PPC-1 cells with CH-11 and sensitizer, with or without zVAD-fmk; format: cell-based, human; conditions: zVAD-fmk 100 μM, annexin V staining
Description: (§1) FIG. 6. Characterization of the mechanism of FAS-sensitizing compounds. (A) PPC-1 cells (1×10^5) were seeded in 24 well plates. The next day, cells were treated with CH-11 antibody (100 ng/mL) and 30 μM 6094911, 5809354, or 5569100 with (square) or without (diamond) caspase inhibitor z-VAD-fmk (100 μM). Apoptosis was measured 24 hours later by Annexin V staining, expressing data as percentage of Annexin V-negative (“viable”) cells (mean+SD) (n=3). (B) PPC-1 cells (2×10^5) were seeded in 6 well plates and co-transfected with plasmids encoding Bcl-XL, Crm A, or empty vector along with a green fluorescent protein (GFP) encoding plasmid to identify successfully transfected cells. After 48 hours, cells were treated with CH-11 antibody (100 ng/mL) and 6094911 (30 μM), 5809354 (30 μM), or 5569100 (15 μM). As a positive control, transfected cells were treated with staurosporine (0.5 μM) (STS). Apoptotic cells were identified by morphological assessment of the GFP-positive cells, and data were expressed as the percentage of nonapoptotic (“viable”) cells (mean+SD) (n=3).
(§2) Cell death assays. Cell viability was measured by MTT and MTS assays, essentially as described in Schimmer et al. (2004). Absorbance readings were plotted against a standard curve to derive the corresponding cell number, and cell viability was expressed as a percentage relative to untreated cells. Apoptosis was measured by flow cytometric analysis of Annexin V surface expression after staining cells with FITC-anti-Annexin V and propidium iodide (PI) (Biovision, Mountain View, Calif.), as described in Pederson et al. (2002).
To further assess the mechanism of the 8 compounds that selectively modulated tumor sensitivity to extrinsic pathway stimuli, the effects of benzoyl-Val-Ala-Asp-fluoromethylketone (zVAD-fmk), a broad-spectrum irreversible inhibitor of caspase-family proteases (Enzyme Systems, Dublin, Calif.) was tested. Accordingly, PPC-1 cells were treated with CH-11 and sensitizers such as 6094911, 5809354, and 5569100 with and without zVAD-fmk (100 μM) for […]. Apoptosis was then measured by annexin V staining.

[2] = test system: PPC-1 cells; test: Apoptosis of PPC-1 cells transfected with CrmA or Bcl-XL, treated with CH-11 and compound; format: cell-based, human; conditions: for protection by Bcl-XL against apoptosis: PPC-1 cells transfected with Bcl-XL; for protection by CrmA against apoptosis induced by CH-11 plus compound: PPC-1 cells transfected with CrmA
Description: as §1
Cell transfections. PPC-1 cells (2×10^5) were seeded in 35 mm diameter plates in RPMI with 10% FCS. The next day the cells were co-transfected using Lipofectamine Plus (Invitrogen, Carlsbad, Calif.) with 0.5 μg GFP-encoding plasmid pEGFP (Invitrogen) in combination with 1.5 μg of plasmids encoding Bcl-XL, the viral caspase-8 inhibitor Crm A, or empty vector. At 2 days post-transfection, cells were incubated with various concentrations of CH-11 antibody and the test compounds for 24 hours, then the percentage apoptosis was scored by UV-microscopic analysis of the GFP-positive cells, counting a minimum of 200 cells. Cells that had rounded up and were floating in the medium were counted as non-viable, while cells that remained adherent to the plate with normal morphological features were counted as viable.
To further address the specificity of the compounds for the extrinsic pathway, the effects of selective apoptosis inhibitory genes were examined. For these experiments, PPC-1 cells were transfected with plasmids encoding CrmA, a viral protein that blocks the extrinsic pathway by inhibiting caspase-8 (Zhou et al., 1997) or encoding Bcl-xL, a mitochondria-targeting protein that blocks the intrinsic pathway by inhibiting release of cytochrome c (Boise et al., 1993; Kharbanda et al., 1997). After transfection, cells were treated with CH-11 antibody and compounds 6094911, 5809354, or […] scoring the percentage of apoptotic cells among the successfully transfected cells as determined by co-transfection of a GFP-marker plasmid.

[3] = test system: solid tumor cell lines; test: MTT cell viability of a spectrum of tumor cell lines with or without CH-11; format: cell-based; conditions: 10 tumor cell lines, CH-11 100 ng/mL, MTT 24 hours
Description: FIG. 3. Compounds 6094911, 5809354, and 5569100 sensitize a spectrum of tumor cells to CH-11 anti-FAS antibody. Solid tumor cell lines were seeded overnight in 96 well plates at a density of 1×10^4 cells per well. The next day, cells were treated with increasing concentrations of compound 6094911, 5809354, or 5569100 with (square) or without (circle) CH-11 antibody (100 ng/mL). Cell viability was measured 24 hours later by MTT assay. Cell viability is expressed as a mean percentage of untreated cells+SD (n=3).
as §2
To assess the spectrum of activity of the small molecule FAS sensitizers, an additional 9 malignant cell lines derived from breast, ovarian, and prostate carcinomas were treated with increasing concentrations of the sensitizers in the presence or absence of CH-11. […]

Compound | effect of zVAD-fmk on sensitization to CH-11 [1] | protection by Bcl-XL against apoptosis [2] | protection by CrmA against apoptosis induced by CH-11 plus compound [2] | tumor cell lines sensitized to CH-11 [3]
CCn1c(=N)n(CC(=O)c2cc(C(C)(C)C)c(O)c(C(C)(C)C)c2)c2ccccc21 [compound 5569100, 1-(3,5-di-tert-butyl-4-hydroxyphenyl)-2-(3-ethyl-2-imino-2,3-dihydro-1H-benzo[d]imidazol-1-yl)ethanone hydrobromide] | zVAD-fmk blocked sensitization to CH-11 | no protective effect | almost completely protected | 
4-(4-chloro-2-methylphenoxy)-N-hydroxybutanamide [compound 5809354] | zVAD-fmk blocked sensitization to CH-11 | no protective effect | almost completely protected | sensitized the same tumor lines with the exception of HT29
CN[C@@H]1C[C@H]2O[C@@](C)([C@@H]1OC)n1c3ccccc3c3c4c(c5c6ccccc6n2c5c31)C(=O)NC4 [staurosporine, reference compound] |  | Bcl-XL but not Crm A protected |  | 
CC(=O)CC(=O)Nc1ccc(Cl)c(C(F)(F)F)c1 [compound 6094911, N-[4-chloro-3-(trifluoromethyl)phenyl]-3-oxobutanamide] | zVAD-fmk blocked sensitization to CH-11 | no protective effect | almost completely protected | 4 of 10
